pKi: −log10 of the molar value.
Key:
Format in all cases: biochemical
SirT2 = biological target: T1, SirT2 (Homo sapiens, UniProt Q8IXJ6); assay: SirT2 activity assay (HPLC of 2′- and 3′-AADPR); details: 800 μM NAD+, 500 μM H3 peptide, pH 7.5, 45 mins at 37° C.
T1 sequence (Q8IXJ6 1-389): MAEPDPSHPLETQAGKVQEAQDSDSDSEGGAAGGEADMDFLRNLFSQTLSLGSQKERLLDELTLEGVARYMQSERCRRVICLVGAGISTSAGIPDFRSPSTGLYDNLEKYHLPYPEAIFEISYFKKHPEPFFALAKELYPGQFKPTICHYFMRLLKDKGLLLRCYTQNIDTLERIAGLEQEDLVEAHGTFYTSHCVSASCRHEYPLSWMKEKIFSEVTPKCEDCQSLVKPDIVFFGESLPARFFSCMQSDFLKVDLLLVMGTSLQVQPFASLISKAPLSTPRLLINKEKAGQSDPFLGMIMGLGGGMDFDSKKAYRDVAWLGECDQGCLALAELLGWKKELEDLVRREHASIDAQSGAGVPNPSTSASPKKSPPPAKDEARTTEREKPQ
Procedure: (§1) Reactions containing 800 μM NAD^+, 500 μM H3 peptide, and 100 mM phosphate buffer at pH 7.5, with varying concentrations of 2′-deoxy-2′-fluoro-nucleosides or nucleotides were initiated by addition of SirT2 enzyme to a concentration of 16.6 μM. Reactions were incubated for 45 mins at 37° C. and quenched by addition of trifluoroacetic acid to pH 2. After centrifugation to remove precipitates, reactions were injected on HPLC for activity analysis. Production of 2′- and 3′-AADPR were analyzed at 260 nm.
as §1, with “SirT2 Activity Assay: Reactions containing” for “Reactions containing”, “concentrations of 2′-deoxy-2′-chloro-nucleosides were initiated” for “concentrations of 2′-deoxy-2′-fluoro-nucleosides or nucleotides were initiated”

SirT1 = biological target: T2, SirT1 (Homo sapiens, UniProt Q96EB6); assay: SirT1 activity assay (HPLC of 2′- and 3′-AADPR); details: 200 μM NAD+, 100 μM JB12 peptide; for SirT1 Ki / pKi: pH 7.5, 30 mins at 37° C.; for SirT1 inhibition (in words): pH 7.5
T2 sequence (Q96EB6 1-747): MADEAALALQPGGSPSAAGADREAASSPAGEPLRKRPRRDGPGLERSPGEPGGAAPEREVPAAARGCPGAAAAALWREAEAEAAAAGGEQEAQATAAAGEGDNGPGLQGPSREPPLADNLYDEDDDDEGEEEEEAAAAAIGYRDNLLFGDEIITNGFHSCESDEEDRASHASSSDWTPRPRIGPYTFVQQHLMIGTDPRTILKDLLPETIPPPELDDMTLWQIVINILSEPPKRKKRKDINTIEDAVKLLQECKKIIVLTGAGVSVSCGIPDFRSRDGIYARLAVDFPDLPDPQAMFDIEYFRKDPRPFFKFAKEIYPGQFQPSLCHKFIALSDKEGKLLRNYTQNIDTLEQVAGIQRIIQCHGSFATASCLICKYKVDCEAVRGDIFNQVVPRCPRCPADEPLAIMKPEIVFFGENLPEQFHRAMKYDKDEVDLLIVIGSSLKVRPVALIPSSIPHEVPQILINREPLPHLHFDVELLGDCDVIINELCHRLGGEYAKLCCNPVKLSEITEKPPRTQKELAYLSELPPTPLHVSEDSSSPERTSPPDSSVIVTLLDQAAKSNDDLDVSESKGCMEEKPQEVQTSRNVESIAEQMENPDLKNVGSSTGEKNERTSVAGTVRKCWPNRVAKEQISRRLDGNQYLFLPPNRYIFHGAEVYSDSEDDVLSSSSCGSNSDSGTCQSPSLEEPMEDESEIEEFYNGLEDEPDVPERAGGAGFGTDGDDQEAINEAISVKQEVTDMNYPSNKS
Procedure: as §1, with “200” for “800”, “100” for “500”, “JB12” for “H3”, “SirT1” for “SirT2”, “12.9” for “16.6”, “30” for “45”
SirT1 Activity Assay: Reactions containing 200 μM NAD^+, 100 μM JB12 peptide, and 100 mM phosphate buffer at pH 7.5, with varying concentrations of 2′-deoxy-2′-chloro-nucleosides were initiated by addition of SirT1 enzyme to a concentration of 12.9 μM. Reactions were incubated for 30 mins at 37° C. and quenched by addition of trifluoroacetic acid to pH 2. After centrifugation to remove precipitates, reactions were injected on HPLC for activity analysis. Production of 2′- and 3′-AADPR were analyzed at 260 nm.

SirT3 = biological target: T3, SirT3 (Homo sapiens, UniProt Q9NTG7); assay: SirT3 activity assay (HPLC of 2′- and 3′-AADPR); details: 800 μM NAD+, 500 μM H3 peptide, pH 7.5, 2 hours at 37° C.
T3 sequence (Q9NTG7 1-399): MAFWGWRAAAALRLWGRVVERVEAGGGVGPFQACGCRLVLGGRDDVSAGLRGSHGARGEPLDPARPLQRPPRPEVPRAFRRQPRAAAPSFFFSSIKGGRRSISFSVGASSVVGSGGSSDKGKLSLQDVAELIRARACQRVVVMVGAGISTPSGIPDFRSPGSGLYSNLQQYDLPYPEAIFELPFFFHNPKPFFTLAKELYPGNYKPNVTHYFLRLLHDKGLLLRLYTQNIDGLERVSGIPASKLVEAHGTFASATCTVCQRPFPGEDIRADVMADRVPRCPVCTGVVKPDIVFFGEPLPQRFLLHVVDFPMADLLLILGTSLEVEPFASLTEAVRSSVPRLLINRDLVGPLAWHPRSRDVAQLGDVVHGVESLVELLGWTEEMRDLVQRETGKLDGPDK
Procedure: as §1, with “SirT3” for “SirT2”, “13.9” for “16.6”, “2 hours” for “45 mins”
SirT3 Activity Assay: Reactions containing 800 μM NAD^+, 500 μM H3 peptide, and 100 mM phosphate buffer at pH 7.5, with varying concentrations of 2′-deoxy-2′-chloro-nucleosides were initiated by addition of SirT3 enzyme to a concentration of 13.9 μM. Reactions were incubated for 2 hours at 37° C. and quenched by addition of trifluoroacetic acid to pH 2. After centrifugation to remove precipitates, reactions were injected on HPLC for activity analysis. Production of 2′- and 3′-AADPR were analyzed at 260 nm.

pKi (SirT2)	SirT1 Ki (SirT1)	pKi (SirT3)	pKi (SirT1)	SirT2 Ki (SirT2)	SirT1 inhibition (in words) (SirT1)	SirT3 Ki (SirT3)	Structure (SMILES)
				Ki = high mM	no inhibition	Ki = high mM	NC(=O)c1ccc[n+]([C@@H]2O[C@H](CO)[C@@H](O)C2(F)F)c1 [gem-diF-NR, 1-(2′-deoxy-2′,2′-difluoro-ribofuranosyl)-nicotinamide]
3.35		3.97			no inhibition		NC(=O)c1ccc[n+]([C@@H]2O[C@H](COP(=O)([O-])O)C(O)C2F)c1 (stereo partly drawn) [ribo-F-NMN, 2′-deoxy-2′-fluoro-ribo-nicotinamide mononucleotide]
3.39		3.91	3.11				NC(=O)c1ccc[n+]([C@@H]2O[C@H](CO)C(O)C2(Cl)Cl)c1 (stereo partly drawn) [β-gem-diCl-NR, 1-(2′-deoxy-2′,2′-dichloro-ribofuranosyl)-nicotinamide]

More lines, now with the values behind:

Structure (SMILES)	pKi (SirT2)	SirT1 Ki (SirT1)	pKi (SirT3)	pKi (SirT1)	SirT2 Ki (SirT2)	SirT1 inhibition (in words) (SirT1)	SirT3 Ki (SirT3)
NC(=O)c1ccc[n+]([C@@H]2O[C@H](CO)C(O)C2F)c1 (stereo partly drawn) [ara-F-NR, 1-(2′-deoxy-2′-fluoro-arabinofuranosyl)-nicotinamide]	2.64	Ki = high mM	3.21				
NC(=O)c1ccc[n+]([C@@H]2O[C@H](COP(=O)([O-])O)C(O)C2(F)F)c1 (stereo partly drawn) [gem-diF-NMN, 2′-deoxy-2′,2′-difluoro-ribo-nicotinamide mononucleotide]	3.79		3.89	4.74			
NC(=O)c1ccc[n+]([C@@H]2O[C@H](CO)C(O)[C@@H]2F)c1 (stereo partly drawn) [ribo-F-NR, 1-(2-deoxy-2-fluoro-D-ribofuranosyl)-nicotinamide]	2.76		3.60	3.70			
NC(=O)c1ccc[n+]([C@@H]2O[C@H](CO)C(O)C2Cl)c1 (stereo partly drawn) [β-ara-Cl-NR, 1-(2′-deoxy-2′-chloro-arabinofuranosyl)-nicotinamide]	2.49	Ki = high mM	3.26				

Reference: patent US9790252B2, “2-fluorinated riboses and arabinoses and methods of use and synthesis” (CORNELL UNIVERSITY, priority 2009, dated 2017)
